The values below come from patent publication US8637507B2, “Bicyclic compounds as inhibitors of diacylglycerol acyltransferase” (Merck Sharp & Dohme Corp., priority 2009, dated 2014).

Molecules are shown by their SMILES.

This test has as its target human DGAT1 enzyme (Homo sapiens (Human), UniProt O75907). The settings on record: read-out: hDGAT1 IC50; human DGAT1 expressed in Sf9 insect cells, microsomes; 2 hours at room temperature.

human DGAT1 enzyme, sequence (O75907 whole entry): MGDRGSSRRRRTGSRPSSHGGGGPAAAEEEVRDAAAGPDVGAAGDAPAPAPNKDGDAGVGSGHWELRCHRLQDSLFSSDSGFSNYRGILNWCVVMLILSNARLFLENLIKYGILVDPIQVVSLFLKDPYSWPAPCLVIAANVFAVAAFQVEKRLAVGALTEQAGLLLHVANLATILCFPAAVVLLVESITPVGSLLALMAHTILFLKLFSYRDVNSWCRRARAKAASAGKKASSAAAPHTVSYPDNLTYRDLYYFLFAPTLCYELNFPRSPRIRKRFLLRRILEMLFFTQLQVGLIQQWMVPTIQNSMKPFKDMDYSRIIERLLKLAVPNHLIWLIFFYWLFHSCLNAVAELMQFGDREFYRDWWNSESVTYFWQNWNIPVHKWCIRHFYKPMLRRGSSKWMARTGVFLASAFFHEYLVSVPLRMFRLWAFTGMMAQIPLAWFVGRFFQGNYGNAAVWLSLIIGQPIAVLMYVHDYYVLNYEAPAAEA
Method: The in vitro assay to identify DGAT1 inhibitors uses human DGAT1 enzyme expressed in Sf9 insect cells prepared as microsomes. The reaction was initiated by the addition of the combined substrates 1,2-dioleoyl-sn-glycerol and [^14C]-palmitoyl-CoA and incubated with test compounds and microsomal membranes for 2 hours at room temperature. The assay was stopped by adding 0.5 mg wheat germ agglutinin beads in assay buffer with 1% Brij-35 and 1% 3-cholamidopropyldimethyl-ammonio-1-propane sulfonate. Plates were sealed with TopSeal and incubated for 18 hours to allow the radioactive triglyceride product to come into proximity with the bead. Plates were read on a TopCount instrument.
Percent inhibition was calculated as the percent of (test compound inhibition minus non-specific binding) relative to (total binding minus non-specific binding). IC50 values were determined by curve fitting the data to a Sigmoidal dose-response in GraphPad Prism utilizing the following equation: Y=A+(B−A)/(1+10^((Log IC50−X))), where A and B are the bottom and top of the curve (highest and lowest inhibition), respectively, and X is the logarithm of concentration.

In the case of `Cc1cc(C(=O)Nc2ccccc2)c2ccc(-c3ccc(OCC(C)(C)C(=O)O)nc3)cc2n1` [Example B-17, 2,2-dimethyl-3-(5-(2-methyl-4-(phenylcarbamoyl)quinolin-7-yl)pyridin-2-yloxy)propanoic acid], the concentration for half-maximal inhibition (IC50) turned out to be 275 nM.

For orientation: IC50 means the concentration that gives 50% inhibition.
